Measured values as given in ChEMBL document CHEMBL3108753, “FGFR1 Kinase Inhibitors: Close Regioisomers Adopt Divergent Binding Modes and Display Distinct Biophysical Signatures” (ACS Med Chem Lett, 2014).

Key:
[1] = molecular target: T1, Fibroblast growth factor receptor 1 (Homo sapiens, UniProt P11362); experiment: Binding affinity to N-terminal 6xHis-tagged human recombinant FGFR1 (458 to 765) by isothermal titration calorimetric analysis
[2] = molecular target: T1, Fibroblast growth factor receptor 1; experiment: Inhibition of N-terminal GST-tagged human recombinant FGFR1 (456 to 765) after 40 mins by mobility shift assay

T1 sequence (P11362 whole entry): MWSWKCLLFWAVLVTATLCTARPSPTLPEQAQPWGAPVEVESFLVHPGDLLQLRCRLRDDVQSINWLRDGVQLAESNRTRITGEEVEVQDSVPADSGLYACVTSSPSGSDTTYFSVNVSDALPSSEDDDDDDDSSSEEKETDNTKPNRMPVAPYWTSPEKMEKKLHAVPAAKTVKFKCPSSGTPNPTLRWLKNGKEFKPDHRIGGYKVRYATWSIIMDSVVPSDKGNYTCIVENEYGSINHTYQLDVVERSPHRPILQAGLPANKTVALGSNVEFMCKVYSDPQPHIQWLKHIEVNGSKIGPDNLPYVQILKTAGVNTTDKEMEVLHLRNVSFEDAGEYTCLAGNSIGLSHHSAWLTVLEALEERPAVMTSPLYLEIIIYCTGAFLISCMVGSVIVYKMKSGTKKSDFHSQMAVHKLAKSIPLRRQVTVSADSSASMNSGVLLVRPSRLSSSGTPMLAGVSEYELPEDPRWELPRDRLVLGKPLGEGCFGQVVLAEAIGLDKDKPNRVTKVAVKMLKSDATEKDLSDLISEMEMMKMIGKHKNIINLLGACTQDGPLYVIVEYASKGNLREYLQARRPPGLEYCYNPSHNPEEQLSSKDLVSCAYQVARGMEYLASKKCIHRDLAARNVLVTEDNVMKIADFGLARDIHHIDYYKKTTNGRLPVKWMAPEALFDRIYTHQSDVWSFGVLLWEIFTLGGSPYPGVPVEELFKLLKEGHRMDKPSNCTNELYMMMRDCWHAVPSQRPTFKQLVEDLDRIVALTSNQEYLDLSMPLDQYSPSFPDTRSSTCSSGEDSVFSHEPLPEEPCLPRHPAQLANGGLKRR

Row | Kd [1] | IC50 ([2]; read-out: IC50) | IC50 ([2]; read-out: pIC50 (converted)) | SMILES
1 | 5.8 nM | 60 nM | – | COc1cc(CCc2cc(Nc3ccnc(NCc4cc(C)no4)n3)n[nH]2)cc(OC)c1
2 | 447 nM | 20000 nM | 100 nM | COc1ccc(CCc2cc(Nc3ccnc(NCc4cc(C)no4)n3)n[nH]2)cc1OC
